Drawing on patent US5948793A, “3-pyridyloxymethyl heterocyclic ether compounds useful in controlling neurotransmitter release” (Abbott Laboratories, priority 1995, dated 1999), this text covers Ki for 20 molecules.

Counter-ions that a name gives are not always drawn.

The target in one test is neuronal nicotinic cholinergic channel receptors. In words: [3H]-cytisine displacement binding to neuronal nicotinic cholinergic channel receptors. In kind it is rat (crude synaptic membranes from whole rat brain). The following applies: Table 2; [3H]-cytisine 1.25 nM, 60 min at 4° C.; dihydrochloride; read-out: Receptor Binding Ki. The protocol:
B. Protocol For Determination of Nicotinic Cholinergic Channel Receptor Binding Potencies of Ligands
Binding of [^3 H]-cytisine ([^3 H]-CYT) to nicotinic receptors was accomplished using crude synaptic membrane preparations from whole rat brain (Pabreza et al., Molecular Pharmaol., 1990, 39:9). Washed membranes were stored at -80° C. prior to use. Frozen aliquots were slowly thawed and resuspended in 20 volumes of buffer (containing: 120 mM NaCl, 5 mM KCl, 2 mM MgCl2, 2 mM CaCl2 and 50 mM Tris-Cl, pH 7.4 @4° C.). After centrifuging at 20,000×g for 15 minutes, the pellets were resuspended in 30 volumes of buffer. Homogenate (containing […]) was added to triplicate tubes containing concentrations of test compound and [^3 H]-CYT (1.25 nM) in a final volume of 500 μL. Samples were incubated for 60 minutes at 4° C., then rapidly filtered through Whatman GF/B filters presoaked in 0.5% polyethylimine using 3×4 mL of ice-cold buffer. The filters are counted in 4 mL of Ecolume® (ICN). […] Alternately, data were expressed as a percentage of the total specific binding.
Broadly, the Ki is the dissociation constant of the complex between target and ligand, obtained from inhibition or displacement. Take `Cc1ncccc1OC[C@H]1CCN1` [Example 81, 2-methyl-3-(2-(R)-azetidinylmethoxy)pyridine dihydrochloride]: the Ki was 9.3 nM.

The test is the same for the next values; noted with them: Table 2; [3H]-cytisine 1.25 nM, 60 min at 4° C.; read-out: Receptor Binding Ki.
Turning to `FC(F)(F)c1cncc(OC[C@@H]2CCN2)c1` [Example 70, 3-(2-(S)-azetidinylmethoxy)-5-trifluoromethylpyridine dihydrochloride], the Ki was 0.6 nM.

As to `c1cncc(OCC[C@@H]2CCCN2)c1` [Example 102, 3-(2-(2-(S)-pyrrolidinyl)ethoxy)pyridine dihydrochloride], the Ki is 34.9 nM. In the case of `CN1C[C@H](OS(C)(=O)=O)C[C@H]1COc1cccnc1` [Example 87, 3-((trans-4-methanesulfonyloxy-1-methyl-2(S)-pyrrolidinyl)methoxy)pyridine dihydrochloride], the Ki worked out at 0.11 nM. Take `Cc1cncc(OC[C@@H]2CCCN2C)c1` [Example 73, 5-methyl-3-(1-methyl-2-(S)-pyrrolidinylmethoxy)pyridine dihydrochloride]: the Ki worked out at 0.48 nM. As for `CN1CCC[C@H]1CCOc1ccc(Cl)nc1` [Example 105, 3-(2-(1-methyl-2-(S)-pyrrolidinyl)ethoxy-6-chloropyridinedihydrochloride], the Ki worked out at 33.1 nM. `Brc1cncc(OC[C@@H]2CCN2)c1` [Example 67, 3-(2-(S)-azetidinylmethoxy)-5-bromopyridine dihydrochloride]: the inhibitory constant (Ki) came to 0.2 nM. Still for that read-out and setting: the value for `CN1C[C@@H](CF)C[C@H]1COc1cccnc1` [Example 92, 3-((cis-4-fluoromethyl-1-methyl-2-(S)-pyrrolidinyl)methoxy)pyridine dihydrochloride] was 141 nM. `Cc1ccc(OC[C@@H]2CCN2)cn1` [Example 40, 6-methyl-3-(2(S)-azetidinylmethoxy)pyridine dihydrochloride]: the Ki turned out to be 0.05 nM. Still for that read-out and setting: the value for `CN1CC[C@H]1COc1ccc(Cl)nc1` [Example 86, 3-((1-methyl-2-(S)-azetidinyl)methoxy)-6-chloropyridine hydrochloride] was 1.43 nM; that for `CN1CCC[C@H]1COc1nccs1` [Example 11, 2-((1-methyl-2-(S)-pyrrolidinyl)methoxy)thiazole hydrochloride] was 110 nM. For the molecule `C=CCN1CCC[C@H]1COc1cccnc1` [Example 82, 3-((1-allyl-2-(S)-pyrrolidinyl)methoxy)pyridine dihydrochloride], the inhibition constant (Ki) came out at 72.4 nM. As to `c1ccc2ncc(OC[C@H]3CCCN3)cc2c1` [Example 76, 3-(2-(R)-pyrrolidinylmethoxy)quinoline dihydrochloride], the Ki was 12.8 nM. On to `Cc1ncccc1OC[C@@H]1CCCN1C` [Example 53, 2-methyl-3-(1-methyl-2-(S)-pyrrolidinylmethoxy)pyridine dihydrochloride], for which the inhibition constant (Ki) is 28 nM. Consider `CN1CC[C@H]1COc1cnc(Cl)c(Cl)c1` [Example 110, 5,6-Dichloro-3-(1-methyl-2-(S)-azetidinylmethoxy)pyridine hydrochloride], for which the Ki came to 0.75 nM. Consider `CN1CCC[C@@H]1COc1cncc(C(F)(F)F)c1` [Example 54, 3-((1-methyl-2-(R)-pyrrolidinyl)methoxy)-5-trifluoromethylpyridine hydrochloride], for which the Ki worked out at 78 nM. `Cc1ccncc1OC[C@@H]1CCN1` [Example 64, 4methyl-3-(2-(S)-azetidinylmethoxy)pyridine dihydrochloride]: the inhibitory constant (Ki) came to 224 nM.

The same test, now with this note: read-out: Receptor Binding Ki.
Take `CN1CCC[C@H]1COc1cncc(Br)c1` [Example 28, 5-bromo-3-((1-methyl-2-(S)-pyrrolidinyl)methoxy)pyridine dihydrochloride]: the Ki was 0.23 nM. For the molecule `CN1CCC[C@H]1COc1ccc(Cl)nn1` [Example 12, 3-((1-methyl-2-(S)-pyrrolidinyl)methoxy-6-chloropyridazine fumarate], the inhibition constant (Ki) stood at 29 nM. Take `C[C@H]1CC[C@@H](COc2cccnc2)N1C` [Example 22, 3-((cis-1,5-dimethyl-2-(S)-pyrrolidinyl)methoxy)pyridine dihydrochloride]: the Ki came to 25 nM.
